Values quoted from earlier work, collected in patent US7022677B1, “Amide derivatives as growth hormone secretagogues” (Kaken Pharmaceutical Co., Ltd., priority 1999, dated 2006).

How the values were obtained:
[1] = human, in vivo
growth hormone release = conditions: control compound for pharmacophore development

oral bioavailability [1] | Compound | growth hormone releasing activity (active/inactive) (growth hormone release)
0.3% | GHRP-6 | 
 | CC(C)(N)CC(=O)N[C@H]1CCc2ccccc2N(Cc2ccc(-c3ccccc3-c3nn[nH]n3)cc2)C1=O [L-692,428] | inactive
